pEC50: −log10 of the molar value.
Tests used:
[1] = system: spontaneous alternation behavior (short-term memory impairment); test: Y-maze test: improvement effect on MK-801-induced cognitive impairment; format: in vivo, mouse; conditions: oral, once, 30 minutes before test; ddY male mice; MK-801 0.15 mg/kg i.p.; spontaneous alternation rate
Experimental: The effect on the improvement of short-term memory impairment of the compound of the present invention was evaluated using a Y-maze test that is an experimental system of spontaneous alternation behavior.
As the Y maze, a maze, in which three runways having a length of one arm of 40 cm, a height of a wall of 13 cm, a width of a floor of 3 cm, and a width of a top of 10 cm are each joined at 120 degrees in a Y shape, was used. […]
The mouse was placed at one end of a certain place in the runway in the Y maze, and then freely explored for 8 minutes, and the runways into which the mice invaded and the order thereof were recorded. The number of the entries of the mice within a measurement time was counted and defined as a total number of entries. Among these, a combination when the mice invaded into different three runways (for example, in a case where the three arms are referred to as a, b, and c, respectively, and the order of the arms with entries is abccbacab, the number was counted as 4, including the repetition) was defined as the number of spontaneous alternation behaviors. For the spontaneous alternation rate, a spontaneous alternation rate calculated by the following equation was taken as an index of spontaneous alternation behavior: Spontaneous alternation rate=number of spontaneous alternation behaviors/(total number of entries−2)×100. […]

[2] = molecular target: T1, GABAB receptor (Mus musculus, UniProt Q80T41+Q9WV18); test: [35S]GTPγS binding test for PAM action, mouse brain cortical membrane; format: biochemical; conditions: 100 μM GABA = 100%; for pEC50: concentration raising reaction rate from 20% with 0.3 μM GABA to 50%, mouse brain cortex membrane, read-out: Potency (PAM Potency of GABAB)
T1 construct: a mouse brain cortex membrane (4 μg); tissue Japan SLC, Inc. (ddY mice); host or cells: mouse brain cortex membrane
T1 sequence (Q9WV18 20-960): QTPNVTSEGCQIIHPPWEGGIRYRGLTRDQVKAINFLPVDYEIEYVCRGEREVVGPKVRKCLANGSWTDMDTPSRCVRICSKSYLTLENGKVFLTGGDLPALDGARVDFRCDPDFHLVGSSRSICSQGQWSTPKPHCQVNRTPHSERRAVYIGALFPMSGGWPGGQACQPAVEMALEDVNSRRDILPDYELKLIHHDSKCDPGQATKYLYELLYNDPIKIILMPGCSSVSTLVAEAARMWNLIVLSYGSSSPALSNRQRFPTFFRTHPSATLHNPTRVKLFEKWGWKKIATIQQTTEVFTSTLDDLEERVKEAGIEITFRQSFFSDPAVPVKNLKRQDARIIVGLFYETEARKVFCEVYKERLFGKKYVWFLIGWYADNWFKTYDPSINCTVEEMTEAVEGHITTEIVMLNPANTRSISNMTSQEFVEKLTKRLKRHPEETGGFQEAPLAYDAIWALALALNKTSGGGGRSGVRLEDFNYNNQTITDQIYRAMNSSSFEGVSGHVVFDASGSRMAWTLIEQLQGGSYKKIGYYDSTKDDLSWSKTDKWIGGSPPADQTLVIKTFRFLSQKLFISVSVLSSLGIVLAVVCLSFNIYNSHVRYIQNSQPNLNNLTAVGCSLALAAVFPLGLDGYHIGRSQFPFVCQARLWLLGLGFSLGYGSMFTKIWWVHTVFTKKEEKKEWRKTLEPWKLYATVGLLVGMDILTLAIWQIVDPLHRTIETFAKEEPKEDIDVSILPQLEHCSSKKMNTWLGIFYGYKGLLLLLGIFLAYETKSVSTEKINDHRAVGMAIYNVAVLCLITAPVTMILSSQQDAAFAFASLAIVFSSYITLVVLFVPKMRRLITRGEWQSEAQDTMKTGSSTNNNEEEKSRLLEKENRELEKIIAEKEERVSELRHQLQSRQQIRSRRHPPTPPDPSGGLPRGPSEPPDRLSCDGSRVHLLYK
T1 sequence (Q80T41 41-940): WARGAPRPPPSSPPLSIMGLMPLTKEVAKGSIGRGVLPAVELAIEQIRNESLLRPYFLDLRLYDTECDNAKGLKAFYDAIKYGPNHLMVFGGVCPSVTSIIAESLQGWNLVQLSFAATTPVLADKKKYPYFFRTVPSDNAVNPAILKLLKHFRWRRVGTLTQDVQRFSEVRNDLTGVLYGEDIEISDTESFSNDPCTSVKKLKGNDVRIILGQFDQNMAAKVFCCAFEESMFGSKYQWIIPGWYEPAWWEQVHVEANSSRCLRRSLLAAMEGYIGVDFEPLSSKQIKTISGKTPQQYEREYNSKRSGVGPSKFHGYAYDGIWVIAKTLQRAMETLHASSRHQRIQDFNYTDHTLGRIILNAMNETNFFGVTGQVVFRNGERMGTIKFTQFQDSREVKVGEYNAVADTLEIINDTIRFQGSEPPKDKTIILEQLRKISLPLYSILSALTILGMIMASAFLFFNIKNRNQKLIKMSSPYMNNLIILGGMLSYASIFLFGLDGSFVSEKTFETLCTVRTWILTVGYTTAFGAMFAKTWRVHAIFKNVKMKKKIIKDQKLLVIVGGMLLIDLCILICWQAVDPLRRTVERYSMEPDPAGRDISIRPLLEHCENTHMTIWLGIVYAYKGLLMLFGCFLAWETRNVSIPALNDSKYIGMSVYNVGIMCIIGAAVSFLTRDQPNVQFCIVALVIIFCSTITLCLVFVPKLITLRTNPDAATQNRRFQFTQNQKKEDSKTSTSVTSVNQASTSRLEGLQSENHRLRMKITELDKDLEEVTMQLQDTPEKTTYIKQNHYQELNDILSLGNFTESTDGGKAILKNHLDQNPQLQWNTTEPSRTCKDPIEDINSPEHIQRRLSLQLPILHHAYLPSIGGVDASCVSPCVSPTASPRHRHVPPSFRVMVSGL
Experimental: The function of the GABAB receptor of the compound of the present invention was evaluated using a [^35S] GTPγS binding test. This method is used for the detection of the PAM action of the compound on the GABAB receptor (Journal of Pharmacology and Experimental Therapeutics, 2003, vol. 307(1), p. 322-330; and Molecular Pharmacology, 2001, vol. 60(5), p. 963-971).
The mouse brain cortical membrane was prepared with reference to a method for preparing a rat brain membrane (European Journal of Pharmacology, 1990, vol. 187 (1), p. 27-38).
The cortex (about 30 g) was cut out of the brains of 90 ddY mice (Japan SLC, Inc.). An A buffer was added to the cortex (cortex/A buffer=about 1:3 (wt/vol)), and homogenized with a glass Teflon-lined homogenizer (Teflon: registered trademark) on ice. The homogenate was centrifuged (750 g, 10 min, 4° C.) and a supernatant was then obtained. An A buffer (90 mL) was added to pellets and homogenized on ice, and a supernatant (750 g, 10 min, 4° C.) was then obtained. By repeating this operation, the supernatant was collected.
The supernatant was centrifuged (18000 g, 15 min, 4° C.). Ultrapure water (54 mL) was added to the pellets, left to stand for 30 min on ice, and then centrifuged (39000 g, 20 min, 4° C.). The pellets were suspended in a KH buffer (54 mL), repeatedly frozen and thawed, and centrifuged (18000 g, 15 min) at 4° C. The buffer was added to the pellets and then frozen and thawed, and this operation was repeated until the centrifugation. By a Bradford method using a protein assay (Protein assay CBB solution; Nacalai Tesque, Inc.), a KH buffer suspension of the pellet was prepared at a protein concentration of 10 mg/mL.
The PAM action of the GABAB receptor in the mouse brain cortex of a test drug was evaluated. To each of wells of a 96-well microplate, a test drug diluted with a B buffer at each concentration (3 nM to 30 μM), a mouse brain cortex membrane (4 μg), [^35S] GTPγS (final concentration of 0.34 nM, Muromachi Yakuhin Co., Ltd.; Institute of Isotopes Co., Ltd.), GABA (final concentration of 0.3 μM; Sigma) were added in this order, followed by standing at room temperature for 1 hour. With a harvester (Filtermate, Perkin-Elmer, Inc.), the suspension was suction-filtered through a glass filter (UniFilter 96-well GF/B filter plates, Perkin-Elmer, Inc.). The glass filter was washed with a C buffer that had been ice-cooled. After drying the glass filter, a liquid scintillation cocktail (50 μL, MicroScinti-PS; PerkinElmer, Inc.) was added to each well. The amount of [^35S] GTPγS bound to the membrane was measured on a plate reader (TopCount, PerkinElmer, Inc.).
The maximum reaction rate of 100 μM GABA was taken as 100%. […] At a time when the test drug was not added, the concentration of the test drug that increased the reaction rate from 20% with 0.3 μM GABA to 50% was taken as a PAM Potency (μM) of the GABAB of the test drug. In the presence of 0.3 μM GABA, the maximum reaction rate of the effect on the GABAB receptor when the test drug was administered up to maximum 30 μM was taken as a PAM Efficacy (%) of the GABAB of the test drug.
The Potency and Efficacy of several representative Example Compounds of the present invention are shown in Table below (In the Table, Ex represents Example Compound No. The “Potency” represents the PAM Potency of GABAB of the test drug, and the “Efficacy” represents PAM Efficacy (%) of GABAB of the test drug. These shall apply hereinafter).

Compound | MED [1] | pEC50 [2] | Efficacy (PAM Efficacy of GABAB) ([2]; maximum reaction rate in presence of 0.3 μM GABA, test drug up to 30 μM) | Emax ([2]; maximum reaction rate in presence of 0.3 μM GABA, test drug up to 30 μM, read-out: Efficacy (PAM Efficacy of GABAB))
Cc1nc(CN2CC[C@@H](O)[C@H](O)C2)c2cc(C3CCC(C)(C)CC3)sc2n1 (single isomer, unassigned) [Ex31, trans-1-{[6-(4,4-dimethylcyclohexyl)-2-methylthieno[2,3-d]pyrimidin-4-yl]methyl}piperidine-3,4-diol] | 1.0 mg/kg | 6.96 | 300% | –
Cc1nc(CN2CCS(=O)(=O)CC2)c2cc(C3CCC(C)(C)CC3)sc2n1 [Ex2, 6-(4,4-dimethylcyclohexyl)-4-[(1,1-dioxidothiomorpholin-4-yl)methyl]-2-methylthieno[2,3-d]pyrimidine] | 0.1 mg/kg | 6.96 | – | 207%

Source: patent publication US9051339B2, “Sulfur-containing bicyclic compound” (Astellas Pharma Inc., priority 2013, dated 2015)
